Measured values as given in US11911399B2, “Treating and preventing disease with TMA and TMAO lowering agents” (The Cleveland Clinic Foundation, priority 2014, dated 2024).
Entries after “also recorded” stand apart in the source; their conditions may differ. Like-named read-outs stand apart in the source and are kept apart here.

Tests used:
[1] = Plasma TMAO in mice on chow or choline diet with or without ASA (LC/MS/MS); type: in vivo, C57BL/6J females mice; settings: both diets (chow and choline), p<0.05 in each diet
[2] = test system: microbial TMA lyase; test: TMA lyase activity of Proteus mirabilis lysate (TMA production from d9 substrates); type: biochemical
Procedure: Using PM lysate (PM that is lysed in a French press to break open the cell wall and release enzyme contents) as the enzyme source, the TMA lyase activity (TMA producing activity) was examined in incubations with either d9(trimethyl)choline as substrate, or […] (GPC) as substrate. […] A further examination of the impact of ASA on TMA lyase activity by PM lysate was undertaken. Three mg of PM lysate was incubated with 25 uM choline and 25 uM choline(d9) in 2 ml PBS at 37 C for 20 hours. In FIG. 7, the dotted lines at 81 mg and 320 mg ASA represent reported steady state plasma levels of aspirin reported at those doses in human subjects. […] In light of this, in some embodiments, enteric coated aspirin or aspirin derivatives that have delayed absorption may be employed to treat disease since they would dissolve in the intestines past the stomach, such that the level of ASA or derivative delivered to the gut lumen will be higher. There exist even longer delayed release formulations of medications that could also be used.

[3] = test system: platelet aggregation; test: Platelet aggregometry with submaximal ADP stimulation in human subjects
Procedure: In further works, human volunteer subject were enrolled in the following study. Individuals were examined at baseline for plasma TMAO and blood drawn for platelet aggregometry studies with submaximal ADP stimulation. Subjects were examined both naïve to aspirin, and then at different time after taking chronic aspirin (81 mg daily) for at least a month. […] After washout period of at least 4 months with no choline supplement, subjects were placed on ASA daily (81 mg) and after a month of ASA, the baseline TMAO level and platelet aggregmetry measure monitored. Then, choline supplementation daily was again resumed.
Choline supplement was used in subjects (choline bitartrate, 2×500 mg/day=choline 2×205.7 mg/day), for 2 month period. Samples were collected at baseline and monthly blood were draw (1,2 months). Plasma levels of TMAO were measured and platelet aggregation in response to 5 uM ADP were measured.

[4] = test system: in vivo thrombosis potential
[5] = omnivores, ASA 81 mg daily for at least a month, then daily choline supplementation
[6] = test system: parenchymal fibrosis and collagen deposition in mouse kidneys; test: Renal fibrosis, Mason trichrome quantitative morphometry; type: in vivo, C57BL/6J mice; settings: 6 weeks diet: TMAO 0.12% or choline 1.0% vs chow
Description: Quantitative Histologic Techniques.

[7] = test system: SMAD3; test: Immunoblot of Smad3 phosphorylation in mouse kidneys; type: in vivo, C57BL/6J mice; settings: 6 weeks diet: TMAO 0.12% or choline 1.0% vs chow
Description: (§1) Preparation of tissue homogenates and immunoblotting.

[8] = test system: KIM-1; test: Immunoblot of KIM-1 expression in mouse kidneys; type: in vivo, C57BL/6J mice; settings: 6 weeks diet: TMAO 0.12% or choline 1.0% vs chow
Description: as §1

[9] = test system: cystatin C; test: Cystatin C levels in mice (ELISA); type: in vivo; settings: 16 weeks diet: TMAO 0.12% or choline 1.0% vs chow

## CC(=O)Oc1ccccc1C(=O)O [ASA, acetylsalicylic acid]
[1]
  reduction in TMAO level by addition of ASA: approx. 2 fold
[2]; 3 mg PM lysate, 25 uM choline and 25 uM choline(d9), 37 C, 20 hours, at ASA plasma level anticipated for 320 mg dose
  TMA lyase inhibition: approximately 40%
[2]; PM lysate, d9(trimethyl)choline as substrate, physiological range of ASA
  inhibition of TMA production (choline TMA lyase activity): inhibited TMA production; also recorded: inhibits
[2]; PM lysate, d9(trimethyl)glycerophosphocholine (GPC) as substrate, physiological range of ASA
  inhibition of TMA production (GPC TMA lyase activity): inhibited TMA production; also recorded: inhibits
[3]; omnivores, ASA 81 mg daily, submaximal ADP stimulation
  rise in platelet aggregation on choline supplementation: corresponding rise in platelet aggregation too was blunted
[4]; choline diet+ASA group vs control (chow and no ASA)
  time to blood flow cessation: no difference in time to blood flow cessation relative to the control
[5]
  rise in plasma TMAO on choline supplementation: The impact of the choline diet on rise in TMAO was blunted

## C[N+](C)(C)CCO [choline]
[3]; human, in vivo
  platelet aggregometry: corresponding increases in platelet aggregometrry
[6]
  parenchymal fibrosis and collagen deposition: corresponding increases in parenchymal fibrosis and collagen deposition
[7]
  phosphorylation of Smad3 (serine 423/425): enhanced phosphorylation of Smad3
[8]
  kidney injury marker-1 (KIM-1): increased kidney injury marker-1
[9]
  serum cystatin C levels: increased serum cystatin C levels compared to chow-fed mice
[4]; choline diet alone vs chow, p<0.0001
  time to blood flow cessation: reduces the time to blood flow cessation

## C[N+](C)(C)[O-] [TMAO, trimethylamine N-oxide]
[6]
  parenchymal fibrosis and collagen deposition: corresponding increases in parenchymal fibrosis and collagen deposition
[7]
  phosphorylation of Smad3 (serine 423/425): enhanced phosphorylation of Smad3
[8]
  kidney injury marker-1 (KIM-1): increased kidney injury marker-1
[9]
  serum cystatin C levels: increased serum cystatin C levels compared to chow-fed mice
